Earlier results in patent US10624887B2, “Compositions of (-)-17-(cyclobutylmethyl)morphinan-3,14,-diol” (priority 2010, dated 2020).

Biological target: δ-opioid receptor (Homo sapiens, UniProt P41143)
Conditions: cited from earlier work

Chain of δ-opioid receptor (P41143 whole entry): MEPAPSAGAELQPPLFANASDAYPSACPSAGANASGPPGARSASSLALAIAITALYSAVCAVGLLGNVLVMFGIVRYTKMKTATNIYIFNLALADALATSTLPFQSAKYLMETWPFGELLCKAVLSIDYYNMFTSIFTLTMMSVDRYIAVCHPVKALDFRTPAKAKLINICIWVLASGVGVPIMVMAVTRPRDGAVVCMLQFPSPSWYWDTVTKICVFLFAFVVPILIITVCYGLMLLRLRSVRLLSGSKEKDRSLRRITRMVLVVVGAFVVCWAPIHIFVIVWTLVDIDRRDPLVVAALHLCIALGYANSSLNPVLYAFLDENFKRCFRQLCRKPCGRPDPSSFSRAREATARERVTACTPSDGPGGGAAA

Oc1ccc2c(c1)[C@@]13CCCC[C@@]1(O)[C@@H](C2)N(CC1CCC1)CC3 [butorphanol, (−)17-(Cyclobutylmethyl)morphinan-3,14-diol]
activity at the δ-opioid receptor: preponderantly antagonist activity
